Assay results taken from patent US12319913B2, “5-halouracil-modified microRNAs and their use in the treatment of cancer” (The Research Foundation for The State University of New York, priority 2018, dated 2025).
[5FU] = 5-fluorouracil base replacing uracil

Tests used:
SW620 colon cancer cells = assay: WST-1 cell proliferation assay, SW620; format: cell-based, human; settings: SW620, in words, vs controls
Method: (§1) For transfections, 1×10^5 cells were plated in six-well plates and transfected with 100 nM of control non-specific miRNA (Thermo Fischer), a modified microRNA, or exogenous native microRNA after 24 hours using Oligofectamine (Thermo Fischer) following the manufacturer's protocols. For reagent free transfection, cells were plated in 6 well plates at (1×10^5) cells per well. Twenty-four hours later 100 pmol miRNA (Control, miR-15a, Mimic-1) were diluted in Optimem (Thermo Fischer) and added to the plate. Media was changed after 24 hours. Media was supplemented with 10% fetal bovine serum (Thermo Fischer). Briefly, cells were cultured in growth media (DMEM/F12 supplemented with B27, 10 ng/mL bFGF, and 20 ng/mL EGF (Life Technologies) in ultra-low attachment flasks) for up to 6 days. […]
(§2) Cell proliferation assay: Twenty-four hours after transfection, cells were seeded in 96-well plates at a density of 2000 cells per well. The cell proliferation assay was performed on days 1 to 5 by incubating 10 μl WST-1 (Roche Applied Science, Mannheim, Germany) in the culture medium for 1 h and reading the absorbance at 450 and 630 nm. The cell proliferation rate was calculated by subtracting the absorbance at 450 nm from the absorbance at 630 nm. […] The O.D. was calculated by subtracting the absorbance at 630 nm from that at 450 nm. […]

colon cancer stem cells = assay: Anchorage-independent colony formation (soft agar); format: cell-based, human; settings: soft agar / Matrigel matrix
Method: Anchorage-independent proliferation was studied to determine cancer cell colony forming ability. Cancer cells were trypsinized and counted and a total of 1×10^5 cells per well were transfected in 6-well plates with 25 nM modified microRNA or native miRs or a negative control miRNA with oligofectamine, and 6 hours after transfection, cells were recounted. A total of 20,000 cells in 0.35% agar (Bacto Agar; Becton Dickinson) were layered on top of 1 mL of a solidified 0.6% agar layer in a 35-mm dish. Growth media with B27, 10 ng/mL bFGF, and 20 ng/mL EGF were included in both layers. After 2 weeks of incubation, colonies more than […] in diameter were counted.

RKO colon cancer cells = assay: WST-1 cell proliferation assay, RKO; format: cell-based, human; settings: in words, vs controls
Method: as §1, §2

[1] = tested on: acute lymphocytic leukemia cell line (REH); assay: Cell proliferation, REH; format: cell-based, human; settings: 50 nM, 25 nM, 12.5 nM, 6.25 nM, and 3.125 nM
[2] = tested on: acute lymphocytic leukemia cell line (REH); assay: Cell proliferation, REH; format: cell-based, human; settings: compared to negative controls
Method: (§3) For transfections, 1×10^5 cells were plated in six-well plates and transfected with 100 nM of control non-specific miRNA (Thermo Fischer), a modified microRNA, or exogenous native microRNA after 24 hours using Oligofectamine (Thermo Fischer) following the manufacturer's protocols. For reagent free transfection, cells were plated in 6 well plates at (1×10^5) cells per well. Twenty-four hours later 100 pmol miRNA (Control, miR-15a, Mimic-1) were diluted in Optimem (Thermo Fischer) and added to the plate. Media was changed after 24 hours. Media was supplemented with 10% fetal bovine serum (Thermo Fischer). Briefly, cells were cultured in growth media (DMEM/F12 supplemented with B27, 10 ng/mL bFGF, and 20 ng/mL EGF (Life Technologies) in ultra-low attachment flasks) for up to 6 days. The spheroid cells were maintained by collection through gentle centrifugation, dissociation to single cells and replating.
(§4) Cell proliferation assay: Twenty-four hours after transfection, cells were seeded in 96-well plates at a density of 2000 cells per well. The cell proliferation assay was performed on days 1 to 5 by incubating 10 μl WST-1 (Roche Applied Science, Mannheim, Germany) in the culture medium for 1 h and reading the absorbance at 450 and 630 nm. The cell proliferation rate was calculated by subtracting the […]. Experiments for the cell proliferation assay were performed at least three times. The O.D. was calculated by subtracting the absorbance at 630 nm from that at 450 nm. Proliferation experiments were performed three times.

A549 lung cancer cells = assay: Cell proliferation, A549; format: cell-based, human; settings: for lung cancer cell proliferation: A549, compared to negative controls; for inhibition of cell proliferation: A549, compared to unmodified miR or negative controls
Method: as §3, §4

[3] = tested on: HCT116 colon cancer cells; assay: WST-1 cell proliferation assay, HCT116; format: cell-based, human; settings: for inhibition of colon cancer cell proliferation: HCT116, in words, vs controls
Method: as §3, with “1×10^5 cells were plated in six-well plates and transfected with 100 nM of control non-specific miRNA (Thermo Fischer), a modified microRNA, or exogenous native microRNA after 24 hours using Oligofectamine” left out
as §4

[4] = tested on: Hs766T pancreatic cancer cells; assay: Cell proliferation, Hs766T; format: cell-based, human; settings: compared to negative controls
Method: as §3, §4

[5] = tested on: AsPC-1 pancreatic cancer cells; assay: Cell proliferation, AsPC-1; format: cell-based, human; settings: for cell proliferation, dose dependence: APSC-1, 50 nM, 25 nM, 12.5 nM, 6.25 nM, and 3.125 nM
Method: as §3, with “For transfections, 1×10^5 cells were plated in six-well plates and transfected with 100 nM of control non-specific miRNA (Thermo Fischer), a modified microRNA, or exogenous native microRNA after 24 hours using Oligofectamine (Thermo Fischer) following the manufacturer's protocols.” left out
as §4

TS-FdUMP = target: T1, TS-FdUMP (Homo sapiens, UniProt P04818); assay: Western blot of TS-FdUMP in colon cancer cells; format: cell-based; settings: colon/colorectal cancer cells
T1 construct: endogenous in cells
T1 sequence (P04818 2-313 limits assumed): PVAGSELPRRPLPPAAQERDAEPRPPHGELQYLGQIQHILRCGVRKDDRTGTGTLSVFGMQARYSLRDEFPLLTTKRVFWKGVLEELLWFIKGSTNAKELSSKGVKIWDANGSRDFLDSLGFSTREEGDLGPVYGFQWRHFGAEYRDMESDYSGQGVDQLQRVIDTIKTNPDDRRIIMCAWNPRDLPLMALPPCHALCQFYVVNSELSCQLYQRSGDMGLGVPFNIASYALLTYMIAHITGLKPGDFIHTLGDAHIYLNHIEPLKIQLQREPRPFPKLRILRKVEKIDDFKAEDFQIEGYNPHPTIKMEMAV
Method: Western immunoblot analysis: Forty-eight hours after transfection, equal amounts of protein (15 μg) extracted from cells lysed in RIPA buffer with protease inhibitor (Sigma) and were separated on 10%-12% sodium dodecyl sulfate-polyacrylamide gels using standard procedures. The primary antibodies used for the analysis were rabbit anti-YAP1 monoclonal antibody (1:10000) (Cell Signaling Technologies), anti-DLCK1 (1:500) (Abcam), anti-BCL2 (1:500) (NeoMarkers), anti-MDC1 (1:500), anti-SUZ12 (1:500), anti-pChk-1 (1:500), anti beta-actin (1:500), anti-BMI-1 (1:10000) (Cell Signaling Technologies), mouse anti-human TS antibody (1:500), anti-α-tubulin (1:50000) (Santa Cruz Biotech Inc.), anti-GAPDH (1:100000) (Santa Cruz Biotech Inc.), anti-E2F3 (1:500) (Santa Cruz Biotech Inc.), Horseradish peroxidase-conjugated antibodies against mouse or rabbit (1:5000, Santa Cruz Biotech Inc.) were used as the secondary antibodies. Protein bands were visualized with autoradiography film using SuperSignal West Pico Chemiluminescent Substrate (Thermo Fischer). Western blot density was quantified using Image J software.

HCT-116 cells = assay: Cell cycle analysis by flow cytometry, colon cancer cells; format: cell-based, human
Method: Cell cycle analysis: Twenty-four hours after transfection, cells were harvested and resuspended at 0.5 to 1×10^6 cells/mL in modified Krishan's buffer supplemented with 0.02 mg/mL RNase H and 0.05 mg/mL propidium iodide. Stained cells were detected by flow cytometry and results were analyzed with Modfit LT™ software. The experiments for cell cycle analysis were performed at least three times.

[6] = tested on: Panc-1 pancreatic cancer cells; assay: Cell proliferation, Panc-1; format: cell-based, human; settings: for cell proliferation, dose dependence: PANC-1, 50 nM, 25 nM, 12.5 nM, 6.25 nM, and 3.125 nM
Method: as §3, with “For transfections, 1×10^5 cells were plated in six-well plates and transfected with 100 nM of control non-specific miRNA (Thermo Fischer), a modified microRNA, or exogenous native microRNA after 24 hours using Oligofectamine (Thermo Fischer) following the manufacturer's protocols.” left out
as §4

Substance: CU^FU^FU^FU^FU^FGCGGU^FCU^FGGGCU^FU^FGC (CUUUUUGCGGUCUGGGCUUGC; RNA, [5FU] at 2, 3, 4, 5, 6, 11, 13, 18, 19, backbone not given here) [modified miR-129]
- inhibition of colon cancer cell proliferation (SW620 colon cancer cells): inhibition of colon cancer cell proliferation
- colony / sphere formation (colon cancer stem cells): formed no visible spheres
- inhibition of colon cancer cell proliferation (RKO colon cancer cells): inhibition of colon cancer cell proliferation
- leukemia cancer cell proliferation, dose dependence [1]: inhibited in a dose dependent manner
- leukemia cancer cell proliferation [2]: inhibited
- lung cancer cell proliferation (A549 lung cancer cells): inhibited
- inhibition of cell proliferation (A549 lung cancer cells): enhanced ability to inhibit
- HCT-116 tumor cell growth ([3]; 50 nM): suppress HCT-116 tumor cell growth completely
- inhibition of colon cancer cell proliferation [3]: inhibition of colon cancer cell proliferation
- inhibitory effect on cell proliferation relative to native miR-129 ([3]; HCT-116, FIG. 3): much more potent than the native miR-129
- pancreatic cancer cell proliferation [4]: inhibited
- cell proliferation, dose dependence [5]: inhibited in a dose dependent manner
- TS-FdUMP break down (TS-FdUMP): break downs TS-FdUMP significantly better than 5-FU alone
- G1 arrest, potency relative to native miR-129 (HCT-116 cells; HCT-116, flow cytometry): more than two-fold
- cell proliferation, dose dependence [6]: inhibited in a dose dependent manner

Substance: U^FAGCAGCACAU^FAAU^FGGU^FU^FU^FGU^FG (UAGCAGCACAUAAUGGUUUGUG; RNA, [5FU] at 1, 11, 14, 17, 18, 19, 21, backbone not given here) [modified miR-15a]
- inhibition of colon cancer cell proliferation (SW620 colon cancer cells): enhanced ability to inhibit colon cancer cell proliferation
- colony / sphere formation (colon cancer stem cells): no colonies were observed
- inhibition of colon cancer cell proliferation (RKO colon cancer cells): enhanced ability to inhibit colon cancer cell proliferation
- leukemia cancer cell proliferation, dose dependence [1]: inhibited in a dose dependent manner
- leukemia cancer cell proliferation [2]: inhibited
- lung cancer cell proliferation (A549 lung cancer cells): inhibited
- inhibition of cell proliferation (A549 lung cancer cells): enhanced ability to inhibit
- inhibition of colon cancer cell proliferation [3]: enhanced ability to inhibit colon cancer cell proliferation
- decrease of cell proliferation compared to control ([3]; HCT-116, WST-1, six days after transfection): 84%
- pancreatic cancer cell proliferation [4]: inhibited
- cell proliferation, dose dependence [5]: inhibited in a dose dependent manner
- inhibition of cell proliferation ([5]; AsPC-1, compared to unmodified miR or negative controls): enhanced ability to inhibit
- TS-FdUMP break down (TS-FdUMP): break downs TS-FdUMP
- increase in the G1/S ratio (HCT-116 cells; colon cancer cells, compared to the control): 7 fold
- cell proliferation, dose dependence [6]: inhibited in a dose dependent manner
- inhibition of cell proliferation ([6]; Panc-1, compared to unmodified miR or negative controls): enhanced ability to inhibit
